In patent US20250368649A1, “TETRAHYDROPYRIDOPYRIMIDINE PAN-KRAS INHIBITORS” (Mirati Therapeutics, Inc., priority 2022, published 2025):

Experiments:
ASPC1 cells = assay: Inhibition of KRas-mediated phosphorylation of ERK (Cisbio HTRF pERK), ASPC1 cells; format: cell-based; details: Homo sapiens, ASPC1, 3 h, AsPC-1 cells, 3 hr compound incubation
PSN1 cells = assay: Inhibition of KRas-mediated phosphorylation of ERK (Cisbio HTRF pERK), PSN1 cells; format: cell-based; details: Homo sapiens, PSN1, 3 h
Method in brief: (§1)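 Phospho-ERK signal measured by HTRF after cells had been plated at 6,000/well in RPMI supplemented with 10% FBS on day 1.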

H358 cells = assay: Inhibition of KRas-mediated phosphorylation of ERK (Cisbio HTRF pERK), H358 cells; format: cell-based; details: Homo sapiens, NCI-H358, 3 h, 3 hr compound incubation
HCT116 cells = assay: Inhibition of KRas-mediated phosphorylation of ERK (Cisbio HTRF pERK), HCT116 cells; format: cell-based; details: Homo sapiens; for IC50: HCT-116, 3 h, 3 hr compound incubation; for inhibition at 0.1 µM: HCT-116, single point at 100 nM, 3 hrs compound incubation
KRas G12R = KRas G12R (Homo sapiens, UniProt P01116, G12R); assay: biochemical; details: Binding to KRas (IC50 nM) G12R, TR-FRET displacement, KRas G12R
MKN1 cells = assay: Inhibition of KRas-mediated phosphorylation of ERK (Cisbio HTRF pERK), MKN1 cells; format: cell-based; details: Homo sapiens
Method in brief: as §1

KRas G12D = KRas G12D (Homo sapiens, UniProt P01116, G12D); assay: biochemical; details: Binding to KRas (IC50 nM) G12D, TR-FRET displacement, KRas G12D
H727 cells = assay: Inhibition of KRas-mediated phosphorylation of ERK (Cisbio HTRF pERK), H727 cells; format: cell-based; details: Homo sapiens, NCI-H727, 3 h, 3 hr compound incubation
A549 cells = assay: Inhibition of KRas-mediated phosphorylation of ERK (Cisbio HTRF pERK), A549 cells; format: cell-based; details: Homo sapiens, A549, 3 h, 3 hr compound incubation
H460 cells = assay: Inhibition of KRas-mediated phosphorylation of ERK (Cisbio HTRF pERK), H460 cells; format: cell-based; details: Homo sapiens; for IC50: NCI-H460, 3 h, 3 hr compound incubation; for inhibition at 0.1 µM: NCI-H460, single point at 100 nM, 3 hrs compound incubation
KRas G12V = KRas G12V (Homo sapiens, UniProt P01116, G12V); assay: biochemical; details: Binding to KRas (IC50 nM) G12V, TR-FRET displacement, KRas G12V
[1] = 3 hour compound incubation, Cisbio pERK HTRF
[2] = MKN-1, 3 hour compound incubation, Cisbio pERK HTRF

Sequence of KRas G12V (P01116 1-169 isoform P01116-2 G12V): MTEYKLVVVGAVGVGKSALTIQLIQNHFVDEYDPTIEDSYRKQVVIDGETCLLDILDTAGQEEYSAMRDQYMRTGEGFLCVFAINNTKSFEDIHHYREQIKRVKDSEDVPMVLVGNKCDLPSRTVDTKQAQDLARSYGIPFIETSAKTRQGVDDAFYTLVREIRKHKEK
Sequence of KRas G12D (P01116 1-169 isoform P01116-2 G12D): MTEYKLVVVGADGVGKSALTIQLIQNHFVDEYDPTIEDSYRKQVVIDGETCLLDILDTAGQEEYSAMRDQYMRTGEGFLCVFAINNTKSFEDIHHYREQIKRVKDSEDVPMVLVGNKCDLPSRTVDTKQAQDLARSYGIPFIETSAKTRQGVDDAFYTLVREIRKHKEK
Sequence of KRas G12R (P01116 1-169 isoform P01116-2 G12R): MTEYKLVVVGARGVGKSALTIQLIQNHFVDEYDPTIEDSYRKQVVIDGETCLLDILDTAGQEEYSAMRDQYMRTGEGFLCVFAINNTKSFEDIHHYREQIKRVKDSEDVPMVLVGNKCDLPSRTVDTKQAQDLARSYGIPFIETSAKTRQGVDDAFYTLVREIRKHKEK

SMILES	IC50 (ASPC1 cells) [nM]	IC50 (PSN1 cells; 3 hr compound incubation) [nM]	IC50 (H358 cells) [nM]	IC50 (HCT116 cells) [nM]	IC50 (KRas G12R) [nM]	IC50 (MKN1 cells; MKN-1, 3 hr compound incubation) [nM]	IC50 (KRas G12D) [nM]	IC50 (H727 cells) [nM]	IC50 (A549 cells) [nM]	IC50 (H460 cells) [nM]	IC50 (KRas G12V) [nM]	IC50 (ASPC1 cells; Cisbio pERK HTRF) [nM]	IC50 (PSN1 cells; [1]) [nM]	inhibition at 0.1 µM (HCT116 cells) [%]	IC50 (MKN1 cells; [2]) [nM]	IC50 (H727 cells; Cisbio pERK HTRF) [nM]	inhibition at 0.1 µM (H460 cells) [%]	IC50 (A549 cells; Cisbio pERK HTRF) [nM]	IC50 (HCT116 cells; Cisbio pERK HTRF) [nM]	IC50 (H460 cells; Cisbio pERK HTRF) [nM]
C[C@@H]1C[C@@H]1c1c(Cl)cc(O)cc1N1CCc2c(nc(OC[C@@]34CCCN3C[C@H](F)C4)nc2N2CCC[C@]3(CNS(=O)(=O)N3)C2)C1 (stereo in doubt) [Example 654, (R)-7-(7-(3-chloro-5-hydroxy-2-(cis-2-methylcyclopropyl)phenyl)-2-(((2R,7aS)-2-fluorotetrahydro-1H-pyrrolizin-7a(5H)-yl)methoxy)-5,6,7,8-tetrahydropyrido[3,4-d]pyrimidin-4-yl)-2-thia-1,3,7-triazaspiro[4.5]decane 2,2-dioxide]	197	2660	72	191	3	38.7	2	323	334	131	< 2	–	–	–	–	–	–	–	–	–
CCc1c(F)ccc2cc(O)cc(N3CCc4c(nc(OC[C@@]56CCCN5C[C@H](F)C6)nc4N4CCCn5nc(N(C)C(C)=O)cc5C4)C3)c12 [Example 355, N-(5-(7-(8-ethyl-7-fluoro-3-hydroxynaphthalen-1-yl)-2-(((2R,7aS)-2-fluorohexahydro-1H-pyrrolizin-7a-yl)methoxy)-5,6,7,8-tetrahydropyrido[3,4-d]pyrimidin-4-yl)-5,6,7,8-tetrahydro-4H-pyrazolo[1,5-a][1_4]diazepin-2-yl)-N-methylacetamide]	–	–	–	–	9	–	3	–	–	–	6	597	> 10000	-28	417	562	18	–	–	–
CCc1c(F)ccc2cc(O)cc(N3CCc4c(nc(OC[C@@]56CCCN5C[C@H](F)C6)nc4N4CCCn5nc(NC(C)=O)cc5C4)C3)c12 [Example 356, N-(5-(7-(8-ethyl-7-fluoro-3-hydroxynaphthalen-1-yl)-2-(((2R,7aS)-2-fluorohexahydro-1H-pyrrolizin-7a-yl)methoxy)-5,6,7,8-tetrahydropyrido[3,4-d]pyrimidin-4-yl)-5,6,7,8-tetrahydro-4H-pyrazolo[1,5-a][1,4]diazepin-2-yl)acetamide]	–	–	–	–	3	–	< 2	–	–	–	3	262	> 10000	-2	216	284	28	524	–	–
CCc1c(F)ccc2cc(O)cc(N3CCc4c(nc(OC[C@@]56CCCN5C[C@H](F)C6)nc4N4CCCc5nc[nH]c5C4)C3)c12 [Example 357, 4-(4-(7,8-dihydroimidazo[4,5-c]azepin-5(3H,4H,6H)-yl)-2-(((2R,7aS)-2-fluorohexahydro-1H-pyrrolizin-7a-yl)methoxy)-5,6-dihydropyrido[3,4-d]pyrimidin-7(8H)-yl)-5-ethyl-6-fluoronaphthalen-2-ol]	–	–	–	–	7	–	11	–	–	–	6	4410	> 10000	-20	2600	1830	12	–	–	–
CCc1c(F)ccc2cc(O)cc(N3CCc4c(nc(OC[C@@]56CCCN5C[C@H](F)C6)nc4N4CCCc5n[nH]cc5C4)C3)c12 [Example 361, 4-(4-(7,8-dihydropyrazolo[4,3-c]azepin-5(2H,4H,6H)-yl)-2-(((2R,7aS)-2-fluorohexahydro-1H-pyrrolizin-7a-yl)methoxy)-5,6-dihydropyrido[3,4-d]pyrimidin-7(8H)-yl)-5-ethyl-6-fluoronaphthalen-2-ol]	–	–	–	–	5	–	14	–	–	–	6	636	> 10000	-11	401	466	1	–	–	–
CCc1c(F)ccc2cc(O)cc(N3CCc4c(nc(OC[C@@]56CCCN5C[C@H](F)C6)nc4N4CCCn5nc(NS(C)(=O)=O)cc5C4)C3)c12 [Example 364, N-(5-(7-(8-ethyl-7-fluoro-3-hydroxynaphthalen-1-yl)-2-(((2R,7aS)-2-fluorohexahydro-1H-pyrrolizin-7a-yl)methoxy)-5,6,7,8-tetrahydropyrido[3,4-d]pyrimidin-4-yl)-5,6,7,8-tetrahydro-4H-pyrazolo[1,5-a][1,4]diazepin-2-yl)methanesulfonamide]	–	–	–	–	< 2	–	2	–	–	–	3	997	> 10000	10	456	716	13	–	–	–
CCc1c(F)ccc2cc(O)cc(N3CCc4c(nc(OC[C@@]56CCCN5C[C@H](F)C6)nc4N4CCCC(O)(C(N)=O)C4)C3)c12 (stereo partly drawn) [Example 368, 1-(7-(8-ethyl-7-fluoro-3-hydroxynaphthalen-1-yl)-2-(((2R,7aS)-2-fluorohexahydro-1H-pyrrolizin-7a-yl)methoxy)-5,6,7,8-tetrahydropyrido[3,4-d]pyrimidin-4-yl)-3-hydroxypiperidine-3-carboxamide]	–	–	–	–	6	–	10	–	–	–	5	666	7050	1	69.1	489	31	–	–	–
CCc1c(NC)nn2c1CN(c1nc(OC[C@@]34CCCN3C[C@H](F)C4)nc3c1CCN(c1cc(O)cc4ccc(F)c(CC)c14)C3)CCC2 [Example 404]	–	–	–	–	3	–	5	–	–	–	6	182	> 10000	–	43.5	188	–	134	424	178
CCc1c(F)ccc2cc(O)cc(N3CCc4c(nc(OC[C@@]56CCCN5C[C@H](F)C6)nc4N4CCCSCC4)C3)c12 [Example 417, 5-ethyl-6-fluoro-4-(2-(((2R,7aS)-2-fluorohexahydro-1H-pyrrolizin-7a-yl)methoxy)-4-(1,4-thiazepan-4-yl)-5,6-dihydropyrido[3,4-d]pyrimidin-7(8H)-yl)naphthalen-2-ol]	–	–	–	–	< 2	–	13	–	–	–	< 2	208	5700	–	29.3	128	–	63	273	84
CCc1c(F)ccc2cc(O)cc(N3CCc4c(nc(OCC5(CN(C)C)CC5)nc4N4CCCn5nncc5C4)C3)c12 [Example 430, 4-(4-(7,8-dihydro-4H-[1,2,3]triazolo[1,5-a][1,4]diazepin-5(6H)-yl)-2-((1-((dimethylamino)methyl)cyclopropyl)methoxy)-5,6-dihydropyrido[3,4-d]pyrimidin-7(8H)-yl)-5-ethyl-6-fluoronaphthalen-2-ol]	–	–	–	–	< 2	–	< 2	–	–	–	< 2	134	> 10000	–	94.9	269	–	592	1030	439
Oc1cc(N2CCc3c(nc(OC[C@@]45CCCN4C[C@H](F)C5)nc3N3CCCC4(CCSC4)C3)C2)c2c(Cl)c(F)ccc2c1 (stereo partly drawn) [Example 464, 5-chloro-6-fluoro-4-(2-(((2R,7aS)-2-fluorohexahydro-1H-pyrrolizin-7a-yl)methoxy)-4-(2-thia-7-azaspiro[4.5]decan-7-yl)-5,6-dihydropyrido[3,4-d]pyrimidin-7(8H)-yl)naphthalen-2-ol]	–	–	–	–	12	–	9	–	–	–	8	1000	> 10000	14	676	1180	-24	–	–	–
